Laboratory results from ChEMBL document CHEMBL1201862, “PubChem BioAssay data set” (2004).
Values belong to the compound of their own block, whether it stands above or below them. Calls of active or inactive are those of the source.

Assays:
[1] = ADAM10 inhibitors, peptide cleavage, dose response, biochemical, QFRET (AID 743254);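 also: ADAM10 enzyme with the DM2 quenched FRET peptide as substrate; EDANS fluorescence gain as the protease cuts the substrate; inhibitor potency against ADAM10 proteolytic activity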
[2] = molecular target: Sphingosine 1-phosphate receptor 2 (Homo sapiens, UniProt O95136); assay: Dose Response Cell Based Assay for Agonists of the S1P2 Receptor. [Related pubchem assays: 729, 736, 843 ]; format: functional
[3] = growth suppression of PTEN-null colon cells, dose response, cell-based, HCT116 PTEN knockout (AID 1047); format: functional;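 also: HCT116 colon tumor cells with PTEN knocked out; cells exposed to compound for 60 hours before readout; potency for loss of cell viability measured by luminescence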
[4] = growth suppression of beta-catenin-knockout colon cells, dose response, cell-based, HCT116, human colon tumor (AID 1045); format: functional;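 also: HCT116 colon tumor cells with beta catenin knocked out; cells exposed to compound for 60 hours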
[5] = Luminescence Cell-Based Dose Retest to Confirm Inhibitors of Cancer Stem Cells. [Related pubchem assays (depositor defined):AID2717, AID2721]; format: functional; conditions: Homo sapiens
[6] = molecular target: Disintegrin and metalloproteinase domain-containing protein 17 (Homo sapiens, UniProt P78536); assay: ADAM17 protease inhibitors, dose response, counter-screen for ADAM10 exosite inhibitor project, biochemical, quenched FRET substrate (AID 743253)
[7] = NIH:OVCAR-3 ovarian cancer cell cytotoxicity, dose response, PAX8 inhibitor project, plate reader, dry powder samples (AID 743044); format: functional, cell-based
[8] = A2780 ovarian cancer cell cytotoxicity, dose response, cytotoxicity control, plate reader, dry powder samples (AID 743046); format: functional, cell-based
[9] = P. falciparum Dd2 growth inhibitors, dose response, SYBR Green, cherry-picked samples (AID 1159567); format: functional, cell-based
[10] = IOSE-T80 ovarian epithelial cell cytotoxicity, dose response, cytotoxicity control for PAX8 inhibitor project, plate reader, dry powder samples (AID 743045); format: functional, cell-based
[11] = HepG2 cell cytotoxicity, dose response, cytotoxicity control, cherry-picked samples (AID 1159577); format: functional, cell-based
[12] = IGROV1 ovarian cancer cell cytotoxicity, dose response, PAX8 inhibitor project, plate reader, dry powder samples (AID 743043); format: functional, cell-based; conditions: IGROV-1
[13] = cytotoxicity in OVCAR8 ovarian cancer cells, dose response, PAX8 project, cell-based, plate reader, dry powder samples (AID 743197); format: functional; conditions: OVCAR-8
Paired box protein Pax-8 = Paired box protein Pax-8 (Homo sapiens, UniProt Q06710); assay: inhibitors of PAX8-driven TPO luciferase reporter, dose response, RMG-I cells, cherry-pick (AID 687027); format: functional, cell-based;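 also: luciferase reporter driven by Pax8 target thyroperoxidase promoter measured by SteadyGlo luminescence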
Caspase-3 = molecular target: T1, Caspase-3 (Homo sapiens, UniProt P42574); format: functional;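 also: Dose-response selectivity test against caspase-3 for candidate inhibitors of sentrin-specific proteases (SENPs)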
T1 sequence (P42574 whole entry): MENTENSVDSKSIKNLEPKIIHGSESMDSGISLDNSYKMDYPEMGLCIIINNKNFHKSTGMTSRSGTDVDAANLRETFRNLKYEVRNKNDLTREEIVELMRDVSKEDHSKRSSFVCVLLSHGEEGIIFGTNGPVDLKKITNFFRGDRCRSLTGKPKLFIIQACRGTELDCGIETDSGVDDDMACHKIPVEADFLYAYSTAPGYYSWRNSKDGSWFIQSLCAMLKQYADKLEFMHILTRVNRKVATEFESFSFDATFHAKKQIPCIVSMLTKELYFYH

Caspase-9 = Caspase-9 (Homo sapiens, UniProt P55211); assay: caspase-9 enzyme inhibition, dose response, selectivity assay for caspase-6 inhibitor project, biochemical, fluorescence, plate reader, cherry-picked samples (AID 743293)
[14] = molecular target: T2, Sentrin-specific protease 6 (Homo sapiens, UniProt Q9GZR1); format: functional;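 also: Luminescence-based dose-response confirmatory assay of SENP6 inhibition, following up an ultra-high-throughput screen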
T2 sequence (Q9GZR1 whole entry): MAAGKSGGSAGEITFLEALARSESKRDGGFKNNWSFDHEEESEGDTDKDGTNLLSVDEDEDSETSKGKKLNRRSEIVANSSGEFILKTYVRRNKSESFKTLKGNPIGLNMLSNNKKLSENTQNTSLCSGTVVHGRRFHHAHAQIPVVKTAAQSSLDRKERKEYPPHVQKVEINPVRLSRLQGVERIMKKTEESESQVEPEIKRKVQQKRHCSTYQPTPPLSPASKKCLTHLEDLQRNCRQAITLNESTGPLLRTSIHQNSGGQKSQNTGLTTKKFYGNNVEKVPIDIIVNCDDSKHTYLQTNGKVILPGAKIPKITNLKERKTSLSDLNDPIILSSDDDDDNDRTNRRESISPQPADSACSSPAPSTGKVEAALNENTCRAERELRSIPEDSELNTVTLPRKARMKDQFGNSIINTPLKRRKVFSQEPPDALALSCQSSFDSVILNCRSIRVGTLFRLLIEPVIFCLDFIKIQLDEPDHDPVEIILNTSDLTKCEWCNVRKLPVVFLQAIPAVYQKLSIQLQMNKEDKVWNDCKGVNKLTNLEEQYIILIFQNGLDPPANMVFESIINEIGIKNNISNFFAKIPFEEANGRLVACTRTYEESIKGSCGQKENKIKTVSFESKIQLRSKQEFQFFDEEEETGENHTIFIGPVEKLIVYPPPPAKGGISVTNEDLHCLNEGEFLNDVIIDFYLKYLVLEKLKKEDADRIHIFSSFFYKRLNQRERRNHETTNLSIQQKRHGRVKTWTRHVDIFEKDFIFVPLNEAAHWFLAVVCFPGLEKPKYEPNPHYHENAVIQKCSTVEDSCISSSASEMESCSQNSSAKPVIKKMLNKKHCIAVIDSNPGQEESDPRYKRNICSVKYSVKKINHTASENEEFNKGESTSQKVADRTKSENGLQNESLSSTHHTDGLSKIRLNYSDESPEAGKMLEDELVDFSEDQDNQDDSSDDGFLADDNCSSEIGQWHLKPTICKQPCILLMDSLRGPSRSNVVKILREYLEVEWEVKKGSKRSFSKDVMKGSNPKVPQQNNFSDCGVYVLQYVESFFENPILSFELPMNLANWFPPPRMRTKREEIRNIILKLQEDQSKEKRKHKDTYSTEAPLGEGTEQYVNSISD

Caspase-7 = Caspase-7 (Homo sapiens, UniProt P55210); assay: human caspase-7 inhibitors, dose response, selectivity assay for caspase-6 inhibitor project, biochemical, DEVD-R110 fluorescence, cherry-pick (AID 743295)
[15] = molecular target: T3, Mitochondrial peptide methionine sulfoxide reductase (Bos taurus, UniProt P54149); assay: Absorbance-based biochemical high throughput dose response assay for activators of Methionine sulfoxide reductase A (MsrA).; format: functional
T3 sequence (P54149 whole entry): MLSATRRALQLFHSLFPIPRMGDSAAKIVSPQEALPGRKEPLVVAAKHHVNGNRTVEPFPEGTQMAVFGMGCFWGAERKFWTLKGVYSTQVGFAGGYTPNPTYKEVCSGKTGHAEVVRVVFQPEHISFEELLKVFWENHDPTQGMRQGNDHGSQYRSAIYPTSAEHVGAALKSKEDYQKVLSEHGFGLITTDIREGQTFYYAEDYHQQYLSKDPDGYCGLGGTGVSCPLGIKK

[16] = molecular target: T4, Sentrin-specific protease 7 (Homo sapiens, UniProt Q9BQF6); format: functional;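 also: Luminescence-based dose-response confirmation of ultra-high-throughput screening hits, measuring inhibition of SENP7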
T4 sequence (Q9BQF6 whole entry): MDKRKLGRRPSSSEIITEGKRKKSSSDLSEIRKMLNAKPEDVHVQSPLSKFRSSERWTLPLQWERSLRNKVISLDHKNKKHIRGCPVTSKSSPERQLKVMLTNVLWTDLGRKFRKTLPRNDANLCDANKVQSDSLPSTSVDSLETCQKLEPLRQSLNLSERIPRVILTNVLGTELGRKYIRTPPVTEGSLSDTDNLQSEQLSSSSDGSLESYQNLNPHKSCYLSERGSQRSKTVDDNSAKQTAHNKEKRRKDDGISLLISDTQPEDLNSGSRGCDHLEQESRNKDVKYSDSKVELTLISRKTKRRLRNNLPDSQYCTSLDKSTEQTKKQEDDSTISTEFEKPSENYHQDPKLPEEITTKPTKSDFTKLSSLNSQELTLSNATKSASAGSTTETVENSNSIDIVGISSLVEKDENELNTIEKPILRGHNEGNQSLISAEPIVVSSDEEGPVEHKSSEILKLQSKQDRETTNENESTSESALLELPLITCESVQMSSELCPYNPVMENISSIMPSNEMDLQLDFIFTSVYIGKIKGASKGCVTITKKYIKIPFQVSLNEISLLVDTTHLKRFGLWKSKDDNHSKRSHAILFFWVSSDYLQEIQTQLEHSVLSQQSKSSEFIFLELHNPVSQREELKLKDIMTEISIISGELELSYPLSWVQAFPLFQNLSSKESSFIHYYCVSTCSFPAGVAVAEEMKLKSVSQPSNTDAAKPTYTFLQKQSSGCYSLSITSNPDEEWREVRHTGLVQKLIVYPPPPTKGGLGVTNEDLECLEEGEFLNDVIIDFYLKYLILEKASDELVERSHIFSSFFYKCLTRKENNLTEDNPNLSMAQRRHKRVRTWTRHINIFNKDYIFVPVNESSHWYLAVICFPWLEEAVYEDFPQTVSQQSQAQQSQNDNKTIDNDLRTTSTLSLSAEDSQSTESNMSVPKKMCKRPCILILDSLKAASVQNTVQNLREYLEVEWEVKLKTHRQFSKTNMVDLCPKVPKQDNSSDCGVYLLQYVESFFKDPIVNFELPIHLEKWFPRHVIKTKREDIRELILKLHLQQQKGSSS

[17] = molecular target: T5, Sentrin-specific protease 8 (Homo sapiens, UniProt Q96LD8); format: functional;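 also: luminescence read-out of SENP8 inhibition, dose-response confirmation following an ultra-high-throughput screen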
T5 sequence (Q96LD8 whole entry): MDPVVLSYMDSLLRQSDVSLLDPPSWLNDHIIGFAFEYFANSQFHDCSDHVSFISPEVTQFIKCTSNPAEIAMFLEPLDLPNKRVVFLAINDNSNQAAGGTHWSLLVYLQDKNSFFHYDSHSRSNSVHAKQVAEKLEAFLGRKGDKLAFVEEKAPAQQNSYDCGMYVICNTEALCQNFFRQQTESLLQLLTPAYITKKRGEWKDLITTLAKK

Caspase-8 = Caspase-8 (Homo sapiens, UniProt Q14790); assay: caspase-8 inhibition counter-screen, dose response, selectivity assay for caspase-6 inhibitor project, biochemical, Z-IETD-R110 fluorescence, cherry-picked samples (AID 743294)
Caspase-6 = molecular target: T6, Caspase-6 (Homo sapiens, UniProt P55212); assay: human caspase-6 inhibitors, dose response, biochemical, VEID-R110 fluorescence, cherry-pick (AID 720632)
T6 sequence (P55212 whole entry): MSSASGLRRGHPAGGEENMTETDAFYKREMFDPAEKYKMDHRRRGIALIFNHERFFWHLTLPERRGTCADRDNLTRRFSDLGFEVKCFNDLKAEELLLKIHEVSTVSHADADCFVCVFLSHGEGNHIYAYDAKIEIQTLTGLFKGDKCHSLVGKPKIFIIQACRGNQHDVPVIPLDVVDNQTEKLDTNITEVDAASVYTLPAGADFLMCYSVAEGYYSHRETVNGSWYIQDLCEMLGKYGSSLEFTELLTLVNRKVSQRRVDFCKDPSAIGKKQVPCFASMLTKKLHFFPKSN

[18] = Glucagon-like peptide 1 release potency, NCI-H716 cell line, dose-response, half-maximal inhibitory concentration (AID 1117344); format: functional, cell-based
[19] = half-maximal inhibitory concentration for glucagon-like peptide-1 release, STC-1 cell line, dose-response (AID 1117345); format: functional, cell-based
[20] = molecular target: T7, Polyadenylate-binding protein 1 (Homo sapiens, UniProt P11940); assay: PABP1 MLLE–PAM2 interaction inhibitors, dose response, miRNA deadenylation inhibitor project, biochemical, fluorescence polarization, Cy5-PAM2 peptide, secondary (AID 602260); format: functional; conditions: read-out: IC50_Mean
[21] = molecular target: Metabotropic glutamate receptor 7 (Homo sapiens, UniProt Q14831); assay: mGlu7 positive allosteric modulators, dose response, cell-based, calcium mobilization, Galpha15 (AID 743384); format: functional
[22] = molecular target: T7, Polyadenylate-binding protein 1; assay: PABP1 MLLE–PAM2 binding inhibitor potency, dose response, biochemical, fluorescence polarization, FITC-PAM2 peptide (AID 602259); format: functional; conditions: read-out: IC50_Mean

T7 sequence (P11940 whole entry): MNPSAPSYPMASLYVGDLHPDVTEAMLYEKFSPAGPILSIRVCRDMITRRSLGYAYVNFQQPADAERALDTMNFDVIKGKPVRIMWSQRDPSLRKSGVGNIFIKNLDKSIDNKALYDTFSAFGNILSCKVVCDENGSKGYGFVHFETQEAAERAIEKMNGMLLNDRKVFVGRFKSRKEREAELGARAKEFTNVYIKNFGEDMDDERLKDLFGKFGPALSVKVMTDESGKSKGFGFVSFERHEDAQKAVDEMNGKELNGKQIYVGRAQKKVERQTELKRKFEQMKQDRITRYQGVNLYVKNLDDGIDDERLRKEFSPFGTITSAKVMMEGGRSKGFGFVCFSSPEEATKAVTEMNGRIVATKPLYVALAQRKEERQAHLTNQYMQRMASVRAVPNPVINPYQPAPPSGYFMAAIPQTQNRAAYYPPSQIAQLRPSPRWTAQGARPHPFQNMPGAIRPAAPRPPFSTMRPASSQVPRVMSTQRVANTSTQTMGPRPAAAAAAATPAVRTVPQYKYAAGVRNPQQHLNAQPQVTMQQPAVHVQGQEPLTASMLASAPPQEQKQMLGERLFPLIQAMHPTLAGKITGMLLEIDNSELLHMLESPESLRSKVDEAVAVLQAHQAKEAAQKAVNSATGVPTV
Metabotropic glutamate receptor 7, sequence (Q14831 whole entry): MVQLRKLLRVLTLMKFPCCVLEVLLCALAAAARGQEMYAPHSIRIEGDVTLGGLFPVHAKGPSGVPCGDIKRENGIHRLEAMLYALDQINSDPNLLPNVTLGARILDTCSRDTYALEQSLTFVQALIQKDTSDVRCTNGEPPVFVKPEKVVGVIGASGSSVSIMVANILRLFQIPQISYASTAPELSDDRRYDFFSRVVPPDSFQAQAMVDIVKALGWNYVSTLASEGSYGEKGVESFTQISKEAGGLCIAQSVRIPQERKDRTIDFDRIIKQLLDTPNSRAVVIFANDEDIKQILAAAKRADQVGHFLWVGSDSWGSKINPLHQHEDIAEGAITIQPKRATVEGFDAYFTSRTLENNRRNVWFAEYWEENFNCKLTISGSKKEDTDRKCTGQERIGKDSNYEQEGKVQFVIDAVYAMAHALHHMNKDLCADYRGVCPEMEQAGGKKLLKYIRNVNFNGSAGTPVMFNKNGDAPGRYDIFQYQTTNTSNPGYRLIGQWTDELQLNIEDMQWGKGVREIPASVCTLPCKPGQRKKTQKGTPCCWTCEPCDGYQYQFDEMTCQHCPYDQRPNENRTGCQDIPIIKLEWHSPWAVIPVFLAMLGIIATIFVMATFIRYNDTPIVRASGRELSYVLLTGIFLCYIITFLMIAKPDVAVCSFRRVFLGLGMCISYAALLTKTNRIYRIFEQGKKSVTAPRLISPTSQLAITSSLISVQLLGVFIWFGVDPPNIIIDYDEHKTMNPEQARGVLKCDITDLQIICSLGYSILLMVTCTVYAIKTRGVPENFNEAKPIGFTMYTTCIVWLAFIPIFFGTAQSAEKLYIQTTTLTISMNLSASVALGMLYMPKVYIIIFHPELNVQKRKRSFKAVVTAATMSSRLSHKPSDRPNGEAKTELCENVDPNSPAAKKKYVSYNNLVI
Caspase-7, sequence (P55210 24-198 limits assumed): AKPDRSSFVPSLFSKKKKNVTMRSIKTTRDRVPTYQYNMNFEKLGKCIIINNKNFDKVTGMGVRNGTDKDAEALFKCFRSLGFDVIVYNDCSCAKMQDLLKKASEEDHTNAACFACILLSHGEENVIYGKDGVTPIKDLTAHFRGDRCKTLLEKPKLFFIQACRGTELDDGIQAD
Caspase-7, sequence (P55210 207-303 limits assumed): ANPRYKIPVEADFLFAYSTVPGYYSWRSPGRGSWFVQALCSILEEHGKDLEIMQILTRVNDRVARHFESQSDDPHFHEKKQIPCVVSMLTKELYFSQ
Sphingosine 1-phosphate receptor 2, sequence (O95136 whole entry): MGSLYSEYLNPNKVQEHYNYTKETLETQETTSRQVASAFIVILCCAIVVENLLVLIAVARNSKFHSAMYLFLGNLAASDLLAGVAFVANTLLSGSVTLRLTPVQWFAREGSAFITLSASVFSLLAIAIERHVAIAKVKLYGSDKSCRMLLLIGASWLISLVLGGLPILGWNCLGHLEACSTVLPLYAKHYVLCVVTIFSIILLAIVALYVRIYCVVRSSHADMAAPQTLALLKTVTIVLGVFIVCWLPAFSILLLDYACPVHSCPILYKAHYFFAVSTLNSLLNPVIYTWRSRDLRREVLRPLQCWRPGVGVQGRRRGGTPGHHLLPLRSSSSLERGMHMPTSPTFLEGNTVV
Paired box protein Pax-8, sequence (Q06710 whole entry): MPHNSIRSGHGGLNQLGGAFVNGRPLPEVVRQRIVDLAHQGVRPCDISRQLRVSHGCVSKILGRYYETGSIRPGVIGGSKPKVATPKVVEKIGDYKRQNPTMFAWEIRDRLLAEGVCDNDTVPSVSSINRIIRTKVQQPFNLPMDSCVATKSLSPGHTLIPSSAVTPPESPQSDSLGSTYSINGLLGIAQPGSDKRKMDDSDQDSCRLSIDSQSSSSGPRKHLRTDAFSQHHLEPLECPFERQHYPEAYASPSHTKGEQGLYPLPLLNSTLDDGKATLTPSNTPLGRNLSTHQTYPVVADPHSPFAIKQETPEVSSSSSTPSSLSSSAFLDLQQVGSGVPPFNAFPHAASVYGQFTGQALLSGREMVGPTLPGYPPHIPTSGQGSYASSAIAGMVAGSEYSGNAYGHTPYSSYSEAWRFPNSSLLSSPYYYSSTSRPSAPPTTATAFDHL
Caspase-8, sequence (Q14790 217-374 limits assumed): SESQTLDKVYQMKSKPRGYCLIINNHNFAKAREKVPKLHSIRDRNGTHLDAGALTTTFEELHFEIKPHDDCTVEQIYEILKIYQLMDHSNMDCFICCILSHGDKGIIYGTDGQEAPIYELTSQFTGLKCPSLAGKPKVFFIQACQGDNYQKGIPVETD
Caspase-8, sequence (Q14790 385-479 limits assumed): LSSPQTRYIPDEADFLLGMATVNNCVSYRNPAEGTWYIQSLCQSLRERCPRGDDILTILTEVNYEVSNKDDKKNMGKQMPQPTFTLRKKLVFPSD
Disintegrin and metalloproteinase domain-containing protein 17, sequence (P78536 whole entry, the tested form may be a part): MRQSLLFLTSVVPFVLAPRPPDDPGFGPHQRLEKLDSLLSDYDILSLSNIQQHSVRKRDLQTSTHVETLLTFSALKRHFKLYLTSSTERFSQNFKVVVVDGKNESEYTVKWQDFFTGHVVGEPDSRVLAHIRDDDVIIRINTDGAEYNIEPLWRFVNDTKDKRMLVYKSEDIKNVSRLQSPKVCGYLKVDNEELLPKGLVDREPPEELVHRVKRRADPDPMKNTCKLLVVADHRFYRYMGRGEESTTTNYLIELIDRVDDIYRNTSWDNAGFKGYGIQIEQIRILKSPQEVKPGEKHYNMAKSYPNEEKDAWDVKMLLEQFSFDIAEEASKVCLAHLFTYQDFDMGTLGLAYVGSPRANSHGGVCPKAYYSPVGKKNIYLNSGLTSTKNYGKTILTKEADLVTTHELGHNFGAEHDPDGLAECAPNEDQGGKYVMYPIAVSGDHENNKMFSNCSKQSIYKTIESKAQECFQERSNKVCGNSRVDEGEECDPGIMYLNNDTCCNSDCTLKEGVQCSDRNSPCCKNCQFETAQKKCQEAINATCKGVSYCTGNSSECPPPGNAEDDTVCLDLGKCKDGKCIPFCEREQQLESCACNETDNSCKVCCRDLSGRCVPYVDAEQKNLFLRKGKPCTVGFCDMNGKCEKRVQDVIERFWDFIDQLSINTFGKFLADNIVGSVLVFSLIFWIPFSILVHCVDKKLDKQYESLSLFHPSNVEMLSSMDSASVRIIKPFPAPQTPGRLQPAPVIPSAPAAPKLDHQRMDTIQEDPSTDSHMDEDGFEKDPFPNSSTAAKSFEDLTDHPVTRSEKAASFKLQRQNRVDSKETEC
Caspase-9, sequence (P55211 1-315 limits assumed): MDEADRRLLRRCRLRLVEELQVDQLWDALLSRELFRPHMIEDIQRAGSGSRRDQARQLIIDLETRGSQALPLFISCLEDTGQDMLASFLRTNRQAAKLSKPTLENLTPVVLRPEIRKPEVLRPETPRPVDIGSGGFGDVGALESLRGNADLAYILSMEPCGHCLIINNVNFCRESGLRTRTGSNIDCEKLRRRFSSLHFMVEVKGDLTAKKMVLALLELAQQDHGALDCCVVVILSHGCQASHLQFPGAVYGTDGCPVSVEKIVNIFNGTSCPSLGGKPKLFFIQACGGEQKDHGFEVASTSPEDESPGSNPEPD
Caspase-9, sequence (P55211 331-416 limits assumed): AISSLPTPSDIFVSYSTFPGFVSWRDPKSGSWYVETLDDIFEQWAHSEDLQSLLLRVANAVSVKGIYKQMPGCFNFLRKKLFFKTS

Compound: COc1ccc(C(c2c[nH]c3ccccc23)c2c[nH]c3ccccc23)cc1O
- IC50 [1]: > 69.5 µM (inactive)
- EC50 [2]: > 50 µM (not active)
- EC50 [3]: 31 µM (active)
- EC50 [4]: 558 µM (active)
- AC50 [5]: 4.09 µM (active)
- IC50 [6]: > 69.5 µM (inactive)

Compound: O=C(Nc1cccc(F)c1)N1CCCCN2[C@@H](CO)[C@H](c3ccc(C#Cc4ccccc4)cc3)[C@@H]2C1
- AC50 [7]: 17.2 µM (active)
- AC50 [8]: 19.8 µM (active)
- AC50 [9]: < 0.3 µM (active)
- AC50 [10]: 63.4 µM (active)
- AC50 [11]: 7.6 µM (active)
- AC50 [12]: 29.4 µM (active)
- AC50 [13]: 65.6 µM (active)
- AC50 (Paired box protein Pax-8): 9.89 µM (active)

- IC50 (Caspase-3): 8.76 µM (active)
- AC50 (Caspase-9): 25.5 µM (active)
- IC50 [14]: 4.39 µM (active)
- AC50 (Caspase-7): 17.4 µM (active)
- EC50 [15]: 57.5 µM (inactive)
- IC50 [16]: 6.5 µM (active)
- AC50 (Caspase-8): 25.5 µM (active)
- AC50 (Caspase-6): 2.49 µM (active)
Compound: O=C(COC(=O)c1ccc([N+](=O)[O-])s1)Nc1ccccc1
- IC50 [17]: 4.04 µM (active)

Compound: Nc1cc(C(F)(F)F)ccc1S
- IC50 [18]: 15.3 µM (inactive)
- IC50 [19]: 1.16 µM (active)

- IC50 [20]: > 66 µM (inactive)
- EC50 [21]: 2.4 µM (active)
- IC50 [22]: > 66 µM (inactive)
Compound: CC(=O)Nc1ccc(SCC(=O)c2cc(C)n(-c3ccccc3F)c2C)cc1
